Experiments:
Format in all cases: cell-based
Human mGlu2 = Human mGlu2 (Homo sapiens, UniProt Q14416); assay: mGlu receptor in vitro assay, human mGlu2
Human mGlu3 = Human mGlu3 (Homo sapiens, UniProt Q14832); assay: mGlu receptor in vitro assay, human mGlu3
Procedure: (§1) Human Embryonic Kidney (HEK-293) cell lines co-expressing rat mGlu receptors 2, 3, 4, 6, 7 or 8 and G protein-coupled inwardly-rectifying potassium (GIRK) channels were grown in Growth Media containing 45% DMEM, 45% F-12, 10% FBS, 20 mM HEPES, 2 mM L-glutamine, antibiotic/antimycotic, non-essential amino acids, 700 μg/mL G418, and 0.6 μg/ml puromycin at 37° C. in the presence of 5% CO2. […] All cell culture reagents were purchased from Invitrogen Corp. (Carlsbad, CA) unless otherwise noted. Calcium assays were used to assess activity of compounds at mGlu1 and mGlu5, as previously described in Engers et al (J. Med. Chem. 2009, 52, 4115-4118). Calcium assays at mGlu3 were performed as described for mGlu5 with the exception that TREx293 mGlu3 Gα15 cells were treated with tetracycline at 20 ng/mL for 20 h prior to assay.
(§2) Briefly, cells were plated into 384-well, black-walled, clear-bottomed poly-D-lysine-coated plates at a density of 15,000 cells/20 μL/well in DMEM containing 10% dialyzed FBS, 20 mM HEPES, and 100 units/mL penicillin/streptomycin (assay media). Plated cells were incubated overnight at 37° C. in the presence of 5% CO2. The following day, the medium was exchanged from the cells to assay buffer [Hanks' balanced salt solution (Invitrogen) containing 20 mM HEPES, pH 7.3] using an ELX405 microplate washer (BioTek), leaving 20 μL/well, followed by the addition of 20 μL/well FluoZin2-AM (330 nM final concentration) indicator dye (Invitrogen; prepared as a stock in DMSO and mixed in a 1:1 ratio with Pluronic acid F-127) in assay buffer. Cells were incubated for 1 h at room temperature, and the dye exchanged to assay buffer using an ELX405, leaving 20 μL/well. Test compounds were diluted to 2 times their final desired concentration in assay buffer (0.3% DMSO final concentration). Agonists were diluted in thallium buffer [125 mM sodium bicarbonate (added fresh the morning of the experiment), 1 mM magnesium sulfate, 1.8 mM calcium sulfate, 5 mM glucose, 12 mM thallium sulfate, and 10 mM HEPES, pH 7.3] at 5 times the final concentration to be assayed. Cell plates and compound plates were loaded onto a kinetic imaging plate reader (FDSS 6000 or 7000; Hamamatsu Corporation, Bridgewater, NJ). Appropriate baseline readings were taken (10 images at 1 Hz; excitation, 470±20 nm; emission, 540±30 nm) and test compounds were added in a 20 μL volume and incubated for approximately 2.5 min before the addition of 10 μL of thallium buffer with or without agonist. After the addition of agonist, data were collected for approximately an additional 2.5 min. Data were analyzed using Excel (Microsoft Corp, Redmond, WA). The slope of the fluorescence increase beginning 5 s after thallium/agonist addition and ending 15 s after thallium/agonist addition was calculated, corrected to vehicle and maximal agonist control slope values, and plotted in using either XLfit (ID Business Solutions Ltd) or Prism software (GraphPad Software, San Diego, CA) to generate concentration-response curves. Potencies were calculated from fits using a four-point parameter logistic equation. For concentration-response curve experiments, compounds were serially diluted 1:3 into 10-point concentration response curves and were transferred to daughter plates using an Echo acoustic plate reformatter (Labcyte, Sunnyvale, CA). Test compounds were applied and followed by EC20 concentrations of glutamate.

Rat mGlu2 = target: T1, Rat mGlu2 (Rattus norvegicus, UniProt P31421); assay: mGlu receptor in vitro assay, thallium flux through GIRK channels, rat mGlu2; settings: PAM potency with EC20 glutamate
T1 construct: expressed in transfected cells; host or cells: HEK-293 co-expressing GIRK channels
T1 sequence (P31421 19-872): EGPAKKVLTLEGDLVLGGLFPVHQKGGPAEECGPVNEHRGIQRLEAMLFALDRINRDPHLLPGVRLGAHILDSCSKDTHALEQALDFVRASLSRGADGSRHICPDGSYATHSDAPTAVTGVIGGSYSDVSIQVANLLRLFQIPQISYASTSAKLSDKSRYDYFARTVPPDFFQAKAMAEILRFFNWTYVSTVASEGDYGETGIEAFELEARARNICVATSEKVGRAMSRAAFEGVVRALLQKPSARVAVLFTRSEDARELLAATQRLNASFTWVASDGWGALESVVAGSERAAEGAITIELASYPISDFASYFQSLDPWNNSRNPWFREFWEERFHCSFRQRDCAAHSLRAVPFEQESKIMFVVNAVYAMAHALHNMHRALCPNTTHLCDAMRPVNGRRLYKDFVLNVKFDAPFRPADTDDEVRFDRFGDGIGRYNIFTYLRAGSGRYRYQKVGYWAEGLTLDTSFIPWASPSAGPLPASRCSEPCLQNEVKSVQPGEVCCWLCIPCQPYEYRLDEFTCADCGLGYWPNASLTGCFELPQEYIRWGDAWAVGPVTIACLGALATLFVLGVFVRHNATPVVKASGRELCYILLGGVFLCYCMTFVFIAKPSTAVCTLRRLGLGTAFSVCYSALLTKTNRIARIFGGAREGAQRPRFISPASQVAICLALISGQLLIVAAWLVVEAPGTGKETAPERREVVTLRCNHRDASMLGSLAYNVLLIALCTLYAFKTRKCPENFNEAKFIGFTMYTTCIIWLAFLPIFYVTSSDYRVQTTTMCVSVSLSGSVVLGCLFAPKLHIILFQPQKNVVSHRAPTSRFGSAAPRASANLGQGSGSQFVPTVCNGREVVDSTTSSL
Procedure: as §1
as §2, with “Compound activity at the group II (mGlu2 and mGlu3) and group III (mGlu4, mGlu6, mGlu7, and mGlu8) was assessed using thallium flux through GIRK channels, a method that has been described in detail. Briefly,” for “Briefly,”

Rat mGlu3 = target: T2, Rat mGlu3 (Rattus norvegicus, UniProt P31422); assay: mGlu receptor in vitro assay (thallium flux through GIRK channels / calcium assay), rat mGlu3; settings: PAM potency with EC20 glutamate
T2 construct: expressed in transfected cells; host or cells: HEK-293 co-expressing GIRK channels
T2 sequence (P31422 23-879): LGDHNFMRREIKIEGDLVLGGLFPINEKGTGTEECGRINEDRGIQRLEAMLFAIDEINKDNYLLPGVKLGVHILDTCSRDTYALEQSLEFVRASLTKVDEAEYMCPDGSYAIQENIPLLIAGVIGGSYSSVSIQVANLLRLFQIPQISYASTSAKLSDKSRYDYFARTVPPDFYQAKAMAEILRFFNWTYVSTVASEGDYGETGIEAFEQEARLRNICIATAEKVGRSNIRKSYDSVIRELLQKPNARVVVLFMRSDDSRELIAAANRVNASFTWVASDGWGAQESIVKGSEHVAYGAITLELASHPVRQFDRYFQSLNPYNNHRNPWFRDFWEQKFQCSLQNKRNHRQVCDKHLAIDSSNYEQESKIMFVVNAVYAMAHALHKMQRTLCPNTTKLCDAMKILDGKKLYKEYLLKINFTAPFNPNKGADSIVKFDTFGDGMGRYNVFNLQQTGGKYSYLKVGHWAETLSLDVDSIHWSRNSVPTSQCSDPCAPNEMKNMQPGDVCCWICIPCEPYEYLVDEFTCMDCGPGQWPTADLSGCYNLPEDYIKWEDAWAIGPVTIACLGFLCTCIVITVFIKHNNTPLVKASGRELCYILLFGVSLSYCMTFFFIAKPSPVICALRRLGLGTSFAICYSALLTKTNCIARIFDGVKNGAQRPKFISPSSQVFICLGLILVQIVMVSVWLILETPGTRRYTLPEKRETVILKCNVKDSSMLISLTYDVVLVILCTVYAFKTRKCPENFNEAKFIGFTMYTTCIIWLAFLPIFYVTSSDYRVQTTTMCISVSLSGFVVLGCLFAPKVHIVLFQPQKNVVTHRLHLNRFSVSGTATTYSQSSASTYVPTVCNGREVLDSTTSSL
Procedure: as §1
as §2, with “Compound activity at the group II (mGlu2 and mGlu3) and group III (mGlu4, mGlu6, mGlu7, and mGlu8) was assessed using thallium flux through GIRK channels, a method that has been described in detail. Briefly,” for “Briefly,”

Sequence of Human mGlu3 (Q14832 23-879): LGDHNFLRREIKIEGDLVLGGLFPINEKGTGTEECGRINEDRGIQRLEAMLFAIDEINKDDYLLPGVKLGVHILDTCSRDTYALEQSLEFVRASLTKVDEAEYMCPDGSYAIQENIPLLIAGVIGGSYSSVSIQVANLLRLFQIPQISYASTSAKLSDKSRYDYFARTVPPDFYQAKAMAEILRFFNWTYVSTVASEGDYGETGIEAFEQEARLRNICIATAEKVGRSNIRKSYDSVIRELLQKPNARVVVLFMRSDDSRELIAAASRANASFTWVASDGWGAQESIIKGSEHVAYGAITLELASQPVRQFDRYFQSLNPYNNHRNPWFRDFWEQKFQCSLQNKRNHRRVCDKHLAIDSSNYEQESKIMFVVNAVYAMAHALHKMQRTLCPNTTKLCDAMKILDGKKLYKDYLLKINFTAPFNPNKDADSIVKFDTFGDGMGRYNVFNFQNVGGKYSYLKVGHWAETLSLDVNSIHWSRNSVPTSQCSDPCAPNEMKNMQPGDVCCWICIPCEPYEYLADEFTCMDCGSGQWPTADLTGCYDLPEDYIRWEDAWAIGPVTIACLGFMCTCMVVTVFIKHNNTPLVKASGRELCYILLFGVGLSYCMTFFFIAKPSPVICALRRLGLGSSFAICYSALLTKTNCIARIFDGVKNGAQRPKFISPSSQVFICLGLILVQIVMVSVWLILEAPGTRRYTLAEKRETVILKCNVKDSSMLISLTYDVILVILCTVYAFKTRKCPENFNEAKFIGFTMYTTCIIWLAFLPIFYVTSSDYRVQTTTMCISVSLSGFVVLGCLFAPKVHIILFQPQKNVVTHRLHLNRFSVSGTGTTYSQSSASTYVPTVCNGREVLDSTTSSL
Sequence of Human mGlu2 (Q14416 19-872): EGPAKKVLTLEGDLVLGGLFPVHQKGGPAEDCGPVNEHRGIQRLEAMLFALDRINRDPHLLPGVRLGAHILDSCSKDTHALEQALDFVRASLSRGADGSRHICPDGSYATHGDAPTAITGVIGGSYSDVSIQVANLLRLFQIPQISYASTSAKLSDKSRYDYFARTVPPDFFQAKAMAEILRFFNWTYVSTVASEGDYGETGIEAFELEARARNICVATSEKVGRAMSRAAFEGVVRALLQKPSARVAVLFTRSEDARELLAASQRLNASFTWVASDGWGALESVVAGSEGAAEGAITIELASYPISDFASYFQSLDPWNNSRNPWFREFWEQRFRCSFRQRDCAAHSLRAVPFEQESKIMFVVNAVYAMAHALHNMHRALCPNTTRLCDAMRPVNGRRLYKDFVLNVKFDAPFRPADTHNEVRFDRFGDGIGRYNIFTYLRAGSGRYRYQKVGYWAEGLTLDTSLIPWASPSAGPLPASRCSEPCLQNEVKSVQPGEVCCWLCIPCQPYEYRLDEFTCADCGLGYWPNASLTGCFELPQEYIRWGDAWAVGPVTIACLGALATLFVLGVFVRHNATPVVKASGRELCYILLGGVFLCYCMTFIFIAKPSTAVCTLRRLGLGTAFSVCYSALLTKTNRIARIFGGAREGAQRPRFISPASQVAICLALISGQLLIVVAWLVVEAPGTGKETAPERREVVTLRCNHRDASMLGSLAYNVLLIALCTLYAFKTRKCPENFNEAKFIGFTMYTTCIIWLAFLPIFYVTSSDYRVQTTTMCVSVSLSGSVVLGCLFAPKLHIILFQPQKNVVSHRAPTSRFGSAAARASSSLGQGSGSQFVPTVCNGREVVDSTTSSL

Row | Compound | EC50 (Human mGlu2) [µM] | EC50 (Human mGlu3) [µM] | EC50 (Rat mGlu2) [µM] | EC50 (Rat mGlu3) [µM]
1 | COc1ccc(C(=O)O)cc1CCCCCOc1ccc(C(=O)CC(C)(C)C)c(O)c1C [Example 3, 3-(5-(4-(3,3-Dimethylbutanoyl)-3-hydroxy-2-methylphenoxy)pentyl)-4-methoxybenzoic acid] | 1.35 | 0.75 | – | –
2 | COc1ccc(C(=O)O)cc1OCCCCCCCCOc1ccc(C(=O)CC(C)(C)C)c(O)c1C [Example 18, 3-{8-[4-(3,3-Dimethylbutanoyl)-3-hydroxy-2-methylphenoxy]octyloxy}-4-methoxybenzoic acid] | 0.882 | > 10 | – | –
3 | COc1ccc(C(=O)O)cc1OCCCCCCCOc1ccc(C(=O)CC(C)(C)C)c(O)c1C [Example 20, 3-{7-[4-(3,3-Dimethylbutanoyl)-3-hydroxy-2-methylphenoxy]heptyloxy}-4-methoxybenzoic acid] | 0.334 | 1.06 | – | –
4 | COc1ccc(C(=O)O)cc1OCCCCCCCCCOc1ccc(C(=O)CC(C)(C)C)c(O)c1C [Example 27, 3-{9-[4-(3,3-Dimethylbutanoyl)-3-hydroxy-2-methylphenoxy]nonyloxy}-4-methoxybenzoic acid] | 0.71 | 1.12 | – | –
5 | COc1ccc(C(=O)O)cc1OCCCCCCCCCCOc1ccc(C(=O)CC(C)(C)C)c(O)c1C [Example 28, 3-{10-[4-(3,3-Dimethylbutanoyl)-3-hydroxy-2-methylphenoxy]decyloxy}-4-methoxybenzoic acid] | 0.415 | 0.995 | – | –
6 | COc1ccc(C(=O)O)cc1OCCN(CCOc1ccc(C(=O)CC(C)(C)C)c(O)c1C)S(=O)(=O)c1ccc(C)cc1 [Example 31, 3-[2-({2-[4-(3,3-Dimethylbutanoyl)-3-hydroxy-2-methylphenoxy]ethyl}[(4-methylphenyl)sulfonyl]amino)ethoxy]-4-methoxybenzoic acid] | 0.373 | > 30 | – | –
7 | [2H]/C(=C(/[2H])C([2H])([2H])Oc1ccc(C(=O)CCC)c(O)c1C)C([2H])([2H])Oc1cccc(C(=O)O)c1C [Example 58, (E)-3-((4-(4-Butyryl-3-hydroxy-2-methylphenoxy)but-2-en-1-yl-1,1,2,3,4,4-d6)oxy)-2-methylbenzoic acid] | 0.008 | 0.54 | – | –
8 | COc1cccc(C(=O)c2ccc(OCc3cccc(-c4cccc(C(=O)O)c4)c3)c(C)c2O)c1 [compound 62, 3′-((3-Hydroxy-4-(3-methoxybenzoyl)-2-methylphenoxy)methyl)-[1,1′-biphenyl]-3-carboxylic acid] | 1.17 | 1.6 | – | –
9 | COc1ccc(C(=O)c2ccc(OCCCCOc3cc(C(=O)O)ccc3OC)c(C)c2O)cc1 [compound 63, 3-(4-(3-Hydroxy-4-(4-methoxybenzoyl)-2-methylphenoxy)butoxy)-4-methoxybenzoic acid] | 0.507 | 0.557 | – | –
10 | COc1ccccc1C(=O)c1ccc(OCc2cnc(-c3cccc(C(=O)O)c3)cn2)c(C)c1O [compound 73, 3-(5-((3-Hydroxy-4-(2-methoxybenzoyl)-2-methylphenoxy)methyl)pyrazin-2-yl)benzoic acid] | 2.03 | 0.685 | – | –
11 | Cc1c(OCc2cccc(-c3cccc(C(=O)O)c3)c2)ccc(C(=O)c2ccc(F)cc2)c1O [compound 74, 3′-((4-(4-Fluorobenzoyl)-3-hydroxy-2-methylphenoxy)methyl)-[1,1′-biphenyl]-3-carboxylic acid] | 0.924 | 1.65 | – | –
12 | COc1cccc(C(=O)c2ccc(OCc3cnc(-c4cccc(C(=O)O)c4)cn3)c(C)c2O)c1 [compound 75, 3-(5-((3-Hydroxy-4-(3-methoxybenzoyl)-2-methylphenoxy)methyl)pyrazin-2-yl)benzoic acid] | 2.71 | 1.34 | – | –
13 | COc1ccc(C(=O)O)cc1OCCCCOc1ccc(C(=O)c2ccc(C(C)(C)C)cc2)c(O)c1C [compound 76, 3-[4-(4-{[4-(tert-Butyl)phenyl]carbonyl}-3-hydroxy-2-methylphenoxy)butoxy]-4-methoxybenzoic acid] | > 10 | > 10 | – | –
14 | Cc1c(OCc2cnc(-c3cccc(-c4noc(=O)[nH]4)c3)cn2)ccc(C(=O)CC(C)(C)C)c1O [compound 124, 3-(3-(5-((4-(3,3-Dimethylbutanoyl)-3-hydroxy-2-methylphenoxy)methyl)pyrazin-2-yl)phenyl)-1,2,4-oxadiazol-5(4H)-one] | – | – | 2.48 | 1.69
15 | Cc1c(OCc2cnc(-c3cccc(-c4nsc(=O)[nH]4)c3)cn2)ccc(C(=O)CC(C)(C)C)c1O [compound 125, 3-(3-(5-((4-(3,3-Dimethylbutanoyl)-3-hydroxy-2-methylphenoxy)methyl)pyrazin-2-yl)phenyl)-1,2,4-thiadiazol-5(4H)-one] | – | – | > 10 | > 30
16 | Cc1c(OCc2cnc(-c3cccc(C(=O)NS(C)(=O)=O)c3)cn2)ccc(C(=O)CC(C)(C)C)c1O [compound 126, 3-(5-((4-(3,3-Dimethylbutanoyl)-3-hydroxy-2-methylphenoxy)methyl)pyrazin-2-yl)-N-(methylsulfonyl)benzamide] | – | – | > 10 | 2.14
17 | COc1c(C(=O)O)cccc1-c1cnc(COc2ccc(C(=O)CC(C)(C)C)c(O)c2C)cn1 [compound 136, 3-(5-((4-(3,3-Dimethylbutanoyl)-3-hydroxy-2-methylphenoxy)methyl)pyrazin-2-yl)-2-methoxybenzoic acid] | – | – | 0.129 | 0.053
18 | Cc1c(OCc2cccc(-c3cccc(C(=O)O)c3)c2)ccc(C(=O)Cc2ccccc2)c1O [compound 161, 3′-((3-Hydroxy-2-methyl-4-(2-phenylacetyl)phenoxy)methyl)-[1,1′-biphenyl]-3-carboxylic acid] | – | – | 0.2 | 1.03
